{
  "source": "patent US5646159A",
  "about": "(priority 1994, dated 1997)",
  "key": {"L-1210 leukemia": {"tested_on": "L-1210 leukemia", "assay": "L-1210 Life Prolongation Assay", "assay_type": "in vivo, mice", "from_the_text": "L-1210 Life Prolongation Assay^a\n^a Intraperitoneal transplants.\n^b Q04DX02 = ip injection on days 1 and 5.\nQ04HX02 = iv drug dosing on hours 1 and 5.\n^c % TC = (median survival time of treated/control animals) ×\n^d log of initial tumor cell population minus log of tumor cell\npopulation at the end of treatment. […]"}, "[1]": {"assay": "Toxicity by weight loss in test animals (Protocol 4; toxic = weight loss of ≥4.0 grams); toxic dose", "assay_type": "in vivo, mice", "from_the_text": "By \"non-toxic\", as used herein with reference to the ester compounds of the present invention, is meant a compound which is not toxic according to Protocal 4, section 4.301(b)(3) where toxicity is defined as a weight loss of ≥4.0 grams as reported in R. I. Geran, N. H. Greenberg, M. M. MacDonald, A. M. Schumacher and B. J. Abbott, Cancer Chemotherapy Reports, Part 3, Vol. 3, No. 2, September 1972."}, "topoisomerase I": {"molecular_target": "T1, topoisomerase I (Bos taurus, UniProt F1MN93)", "T1 sequence (F1MN93 1-767)": "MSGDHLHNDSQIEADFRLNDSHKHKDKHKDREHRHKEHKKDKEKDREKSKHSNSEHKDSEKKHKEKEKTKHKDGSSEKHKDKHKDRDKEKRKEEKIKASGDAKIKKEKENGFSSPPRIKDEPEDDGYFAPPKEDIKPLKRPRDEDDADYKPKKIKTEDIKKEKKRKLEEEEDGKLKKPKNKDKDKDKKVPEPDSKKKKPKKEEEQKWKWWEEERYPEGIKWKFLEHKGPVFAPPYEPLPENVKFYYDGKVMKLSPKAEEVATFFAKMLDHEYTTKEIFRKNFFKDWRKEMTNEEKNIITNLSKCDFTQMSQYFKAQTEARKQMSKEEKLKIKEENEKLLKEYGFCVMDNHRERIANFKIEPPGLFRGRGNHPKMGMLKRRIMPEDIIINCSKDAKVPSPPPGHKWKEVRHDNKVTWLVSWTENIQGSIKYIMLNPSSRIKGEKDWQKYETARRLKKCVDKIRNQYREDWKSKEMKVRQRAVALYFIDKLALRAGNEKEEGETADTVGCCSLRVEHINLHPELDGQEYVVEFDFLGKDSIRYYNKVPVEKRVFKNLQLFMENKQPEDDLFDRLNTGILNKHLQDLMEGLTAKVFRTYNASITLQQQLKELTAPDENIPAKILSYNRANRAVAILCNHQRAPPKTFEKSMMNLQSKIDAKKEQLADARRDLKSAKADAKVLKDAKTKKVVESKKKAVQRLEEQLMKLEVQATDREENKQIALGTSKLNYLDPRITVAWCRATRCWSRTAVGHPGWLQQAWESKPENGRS", "assay": "Cleavable complex assay (topoisomerase I inhibition)", "assay_type": "biochemical", "details": "S.E. in own column, read-out: IC50, minimum drug concentration that inhibited the cleavable complex formation by 50%", "from_the_text": "This relaxation is brought about by breakage of one of the DNA strands in the formation of a covalent topoisomerase I-DNA complex."}, "[2]": {"details": "background statement; cited from earlier work"}, "[3]": {"details": "physiological pH, 7.2; Burke et al. 1993; cited from earlier work"}, "P388 leukemia": {"tested_on": "P388 leukemia", "details": "Wall 1983; cited from earlier work"}, "leukemia and tumor": {"tested_on": "leukemia and tumor", "details": "Wall 1969; cited from earlier work"}, "[4]": {"details": "at highest active dose, iv, Q04HX02 (hours 1 and 5)"}, "[5]": {"details": "iv, Q04HX02 (iv drug dosing on hours 1 and 5), intraperitoneal transplants"}, "[6]": {"details": "ip, Q04DX02 (ip injection on days 1 and 5), intraperitoneal transplants"}, "[7]": {"details": "at highest active dose, ip, Q04DX02 (days 1 and 5)"}},
  "note": "Where a name gives a salt, the structure may show the parent alone.",
  "data": [
    {"smiles": "CCC1(OC(=O)CN)C(=O)OCc2c1cc1n(c2=O)Cc2cc3cc(N)ccc3nc2-1", "note": "(racemic) [10-amino-20-glycinyl-(20RS)-CPT.HCl, 10-amino-20-O-glycinyl-(20RS)-CPT·HCl]", "values": [
      {"measurement": "% T/C = (median survival time of treated/control animals) × 100", "setting": "L-1210 leukemia; [4]", "result": 225, "unit": "%"},
      {"measurement": "KE, log of initial tumor cell population minus log of tumor cell population at the end of treatment", "setting": "L-1210 leukemia; iv, Q04HX02 (hours 1 and 5)", "result": "> 5.97"},
      {"measurement": "active dose range", "setting": "L-1210 leukemia; iv, Q04HX02 (hours 1 and 5)", "result": "1.25 to 20", "unit": "mg/kg"},
      {"measurement": "cures", "setting": "L-1210 leukemia; iv, Q04HX02 (hours 1 and 5)", "result": 0},
      {"measurement": "highest active dose", "setting": "L-1210 leukemia; [5]", "result": 20, "unit": "mg/kg"},
      {"measurement": "toxic dose (not toxic at dose)", "setting": "[1]; iv, Q04HX02 (hours 1 and 5)", "result": "NT at 20"}
    ]},
    {"smiles": "CCC1(OC(=O)CN)C(=O)OCc2c1cc1n(c2=O)Cc2cc3cc4c(cc3nc2-1)OCO4", "note": "(racemic) [10,11-MDO-20-O-glycinyl-(20RS)-CPT·HCl]", "values": [
      {"measurement": "IC50", "setting": "topoisomerase I", "result": 0.43, "unit": "µM"},
      {"measurement": "% T/C = (median survival time of treated/control animals) × 100", "setting": "L-1210 leukemia; iv", "result": 236, "unit": "%"},
      {"measurement": "KE, log of initial tumor cell population minus log of tumor cell population at the end of treatment", "setting": "L-1210 leukemia; iv, Q04HX02 (hours 1 and 5)", "result": 5.97},
      {"measurement": "active dose range", "setting": "L-1210 leukemia; iv, Q04HX02 (hours 1 and 5)", "result": "1.25 to 20", "unit": "mg/kg"},
      {"measurement": "cures", "setting": "L-1210 leukemia; iv, Q04HX02 (hours 1 and 5)", "result": "3/6"},
      {"measurement": "highest active dose", "setting": "L-1210 leukemia; [5]", "result": 10, "unit": "mg/kg"},
      {"measurement": "toxicity in words", "setting": "[1]; administered at 20 mg/kg", "result": "non-toxic"},
      {"measurement": "greater amount of the ester that can be administered than the parent compound", "setting": "[1]; ester vs parent 10,11-methylenedioxy-20(RS)-camptothecin", "result": 10, "unit": "fold"},
      {"measurement": "toxic dose (not toxic at dose)", "setting": "[1]; iv, Q04HX02 (hours 1 and 5)", "result": "NT at 20"}
    ]},
    {"smiles": "CC[C@@]1(O)C(=O)OCc2c1cc1n(c2=O)Cc2cc3c(N)cccc3nc2-1", "note": "[9-amino-(20S)-CPT, reference compound]", "values": [
      {"measurement": "KE, log of initial tumor cell population minus log of tumor cell population at the end of treatment", "setting": "L-1210 leukemia; ip, Q04DX02 (days 1 and 5)", "result": 4.8},
      {"measurement": "active dose range", "setting": "L-1210 leukemia; ip, Q04DX02 (days 1 and 5)", "result": "5.3 to 12", "unit": "mg/kg"},
      {"measurement": "cures", "setting": "L-1210 leukemia; ip, Q04DX02 (days 1 and 5)", "result": "1/6"},
      {"measurement": "highest active dose", "setting": "L-1210 leukemia; [6]", "result": 12, "unit": "mg/kg"},
      {"measurement": "% T/C = (median survival time of treated/control animals) × 100", "setting": "L-1210 leukemia; mouse, in vivo, ip", "result": 250, "unit": "%"},
      {"measurement": "toxic dose", "setting": "[1]; ip, Q04DX02 (days 1 and 5)", "result": 10, "unit": "mg/kg"}
    ]},
    {"smiles": "CC[C@@]1(O)C(=O)OCc2c1cc1n(c2=O)Cc2cc3ccccc3nc2-1", "note": "[camptothecin, Camptothecin]", "values": [
      {"measurement": "water solubility", "setting": "[2]", "result": "water insoluble"},
      {"measurement": "lactone ring opening", "setting": "[3]", "result": "opens to a physiologically inactive open form"},
      {"measurement": "activity in the P388 leukemia assay", "setting": "P388 leukemia", "result": "High activity"}
    ]},
    {"smiles": "CCC1C(=O)OCc2c1cc1n(c2=O)Cc2cc3ccccc3nc2-1", "note": "(centres unmarked) [20-desoxy-CPT]", "values": [
      {"measurement": "antileukemia and antitumor activity", "setting": "leukemia and tumor", "result": "inactive"}
    ]},
    {"smiles": "CCC1(OC(C)=O)C(=O)OCc2c1cc1n(c2=O)Cc2cc3ccccc3nc2-1", "note": "(stereo not drawn) [CPT-20α-acetate]", "values": [
      {"measurement": "antileukemia and antitumor activity", "setting": "leukemia and tumor", "result": "inactive"}
    ]},
    {"smiles": "CCC1(O)C(=O)OCc2c1cc1n(c2=O)Cc2cc3cc4c(cc3nc2-1)OCO4", "note": "(racemic) [10,11-(methylenedioxy)-(20RS)-CPT, 10,11-methylenedioxy-20(RS)-camptothecin, reference compound]", "values": [
      {"measurement": "% T/C = (median survival time of treated/control animals) × 100", "setting": "L-1210 leukemia; [7]", "result": 325, "unit": "%"},
      {"measurement": "KE, log of initial tumor cell population minus log of tumor cell population at the end of treatment", "setting": "L-1210 leukemia; ip, Q04DX02 (days 1 and 5)", "result": 5.97},
      {"measurement": "active dose range", "setting": "L-1210 leukemia; ip, Q04DX02 (days 1 and 5)", "result": "2 to 4", "unit": "mg/kg"},
      {"measurement": "cures", "setting": "L-1210 leukemia; ip, Q04DX02 (days 1 and 5)", "result": "2/6"},
      {"measurement": "highest active dose", "setting": "L-1210 leukemia; [6]", "result": 2, "unit": "mg/kg"},
      {"measurement": "toxic dose", "setting": "[1]; ip, Q04DX02 (days 1 and 5)", "result": 8.0, "unit": "mg/kg"}
    ]},
    {"smiles": "CCC1(O)C(=O)OCc2c1cc1n(c2=O)Cc2cc3cc(N)ccc3nc2-1", "note": "(racemic) [10-amino-(20RS)-CPT, reference compound]", "values": [
      {"measurement": "% T/C = (median survival time of treated/control animals) × 100", "setting": "L-1210 leukemia; ip", "result": 365, "unit": "%"},
      {"measurement": "KE, log of initial tumor cell population minus log of tumor cell population at the end of treatment", "setting": "L-1210 leukemia; ip, Q04DX02 (days 1 and 5)", "result": 5.97},
      {"measurement": "active dose range", "setting": "L-1210 leukemia; ip, Q04DX02 (days 1 and 5)", "result": "1.35 to 3.74", "unit": "mg/kg"},
      {"measurement": "cures", "setting": "L-1210 leukemia; ip, Q04DX02 (days 1 and 5)", "result": "3/6"},
      {"measurement": "highest active dose", "setting": "L-1210 leukemia; [6]", "result": 3.75, "unit": "mg/kg"},
      {"measurement": "toxic dose", "setting": "[1]; ip, Q04DX02 (days 1 and 5)", "result": 6.25, "unit": "mg/kg"}
    ]},
    {"smiles": "CCC1(OC(=O)CN)C(=O)OCc2c1cc1n(c2=O)Cc2cc3c(N)cccc3nc2-1", "note": "(racemic) [9-amino-20-glycinyl-(20RS)-CPT.HCl, 9-amino-20-O-glycinyl-(20RS)-CPT·HCl]", "values": [
      {"measurement": "% T/C = (median survival time of treated/control animals) × 100", "setting": "L-1210 leukemia; [7]", "result": 132, "unit": "%"},
      {"measurement": "% T/C = (median survival time of treated/control animals) × 100", "setting": "L-1210 leukemia; [4]", "result": 168, "unit": "%"},
      {"measurement": "highest active dose", "setting": "L-1210 leukemia; mouse, in vivo", "result": 5, "unit": "mg/kg"},
      {"measurement": "KE, log of initial tumor cell population minus log of tumor cell population at the end of treatment", "setting": "L-1210 leukemia; mouse, in vivo, ip", "result": -1.00},
      {"measurement": "active dose range", "setting": "L-1210 leukemia; mouse, in vivo, ip", "result": 10, "unit": "mg/kg"},
      {"measurement": "cures", "setting": "L-1210 leukemia; mouse, in vivo, ip", "result": 0},
      {"measurement": "highest active dose", "setting": "L-1210 leukemia; mouse, in vivo, ip", "result": 10, "unit": "mg/kg"},
      {"measurement": "KE, log of initial tumor cell population minus log of tumor cell population at the end of treatment", "setting": "L-1210 leukemia; mouse, in vivo, iv", "result": 1.67},
      {"measurement": "active dose range", "setting": "L-1210 leukemia; mouse, in vivo, iv", "result": "2.5 to 5.0", "unit": "mg/kg"},
      {"measurement": "cures", "setting": "L-1210 leukemia; mouse, in vivo, iv", "result": "1/6"},
      {"measurement": "toxic dose (not toxic at dose)", "setting": "[1]; ip, Q04DX02 (days 1 and 5)", "result": "NT^e at 10"},
      {"measurement": "toxic dose (not toxic at dose)", "setting": "[1]; iv, Q04HX02 (hours 1 and 5)", "result": "NT at 5"}
    ]}
  ]
}
